In US8822500B2, “Tyrosine kinase inhibitors” (Chembridge Corporation, priority 2008, dated 2014):
Where “and” joins values, the source holds several entries; their conditions need not be identical. Identical values can stand only once. Like-named read-outs stand apart in the source and are kept apart here.

Legend:
SUDHL-1 lymphoma cells = assay: Cellular assay, 3 day cell viability (WST-1); format: cell-based; details: Homo sapiens, SU-DHL-1, 72 h; 3 days, WST-1; read-out: GTx-SUDHL-1 IC50
ALK = ALK (Homo sapiens (Human), UniProt Q9UM73); assay: In vitro kinase activity assay (LANCE TR-FRET); format: biochemical;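 note: kinase reactions with ATP and a poly-GT peptide substrate, phosphorylated product read by time-resolved FRET, 11-point curve from 10^−11 to 10^−5 M, DMSO as negative control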
TrkA = TrkA (Homo sapiens (Human), UniProt P04629); assay: In vitro kinase activity assay (LANCE TR-FRET); format: biochemical;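 note: kinase reaction with poly-GT peptide substrate and ATP, phosphorylated product quantified by time-resolved FRET, eleven-point dose curves from 10^−11 to 10^−5 M in triplicate, DMSO as negative control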
U937 lymphoma cells = assay: Cellular assay, 3 day cell viability (WST-1); format: cell-based; details: Homo sapiens, U-937, 72 h; 3 days, WST-1; read-out: GTx-U937 IC50
K299 lymphoma cells = assay: Cellular assay, 3 day cell viability (WST-1); format: cell-based; details: 72 h, 3 days, read-out: GTx-K299 IC50
in vitro [1] = details: rat, microsomes; for half-life at 0.5 μM: pH 7.4; for microsomal CLint at 0.5 μM: pH 7.4, Rat LM-P1 CL (ul/min/mg)
in vitro [2] = details: human, microsomes; for microsomal CLint at 0.5 μM: pH 7.4, Human LM-P1 CL (ul/min/mg); for half-life at 0.5 μM: pH 7.4, Human LM-P1 Half-life (min)
[3] = Metabolic stability, Phase I microsome reactions; format: in vitro ADME, mouse; details: mouse, liver microsomes, pH 7.4, Phase I only, 1.0 mg/ml microsomes
Caco-2 cells = assay: Caco-2 cell permeation study; format: in vitro ADME; details: 10 μM; for Papp (10−6 cm/sec) A to B: apical pH 6.5, 2 h; for Papp (10−6 cm/sec) B to A: basolateral pH 7.4, 2 h;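 for all read-outs here: Caco-2 monolayers grown for 21–28 days with integrity confirmed by TEER, apical buffer HBSS with MES, basolateral buffer HBSS with HEPES, compound levels quantified by LC/MS/MS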
[4] = Caco-2 cell permeation study; format: in vitro ADME; details: human; for Papp A→B at 2 h, 10 μM: Caco-2, pH 6.5, 10 μM, apical pH 6.5, 2 h; for efflux ratio at 2 h, 10 μM: Caco-2, Caco-2; for Papp B→A at 2 h, 10 μM: Caco-2, pH 7.4, 10 μM, basolateral pH 7.4, 2 h;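 for all read-outs here: Caco-2 monolayers grown for 21–28 days with integrity confirmed by TEER, apical buffer HBSS with MES, basolateral buffer HBSS with HEPES, compound levels quantified by LC/MS/MS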
[5] = Rat pharmacokinetics / bioavailability; format: in vivo

Sequence of ALK (Q9UM73 19-1620): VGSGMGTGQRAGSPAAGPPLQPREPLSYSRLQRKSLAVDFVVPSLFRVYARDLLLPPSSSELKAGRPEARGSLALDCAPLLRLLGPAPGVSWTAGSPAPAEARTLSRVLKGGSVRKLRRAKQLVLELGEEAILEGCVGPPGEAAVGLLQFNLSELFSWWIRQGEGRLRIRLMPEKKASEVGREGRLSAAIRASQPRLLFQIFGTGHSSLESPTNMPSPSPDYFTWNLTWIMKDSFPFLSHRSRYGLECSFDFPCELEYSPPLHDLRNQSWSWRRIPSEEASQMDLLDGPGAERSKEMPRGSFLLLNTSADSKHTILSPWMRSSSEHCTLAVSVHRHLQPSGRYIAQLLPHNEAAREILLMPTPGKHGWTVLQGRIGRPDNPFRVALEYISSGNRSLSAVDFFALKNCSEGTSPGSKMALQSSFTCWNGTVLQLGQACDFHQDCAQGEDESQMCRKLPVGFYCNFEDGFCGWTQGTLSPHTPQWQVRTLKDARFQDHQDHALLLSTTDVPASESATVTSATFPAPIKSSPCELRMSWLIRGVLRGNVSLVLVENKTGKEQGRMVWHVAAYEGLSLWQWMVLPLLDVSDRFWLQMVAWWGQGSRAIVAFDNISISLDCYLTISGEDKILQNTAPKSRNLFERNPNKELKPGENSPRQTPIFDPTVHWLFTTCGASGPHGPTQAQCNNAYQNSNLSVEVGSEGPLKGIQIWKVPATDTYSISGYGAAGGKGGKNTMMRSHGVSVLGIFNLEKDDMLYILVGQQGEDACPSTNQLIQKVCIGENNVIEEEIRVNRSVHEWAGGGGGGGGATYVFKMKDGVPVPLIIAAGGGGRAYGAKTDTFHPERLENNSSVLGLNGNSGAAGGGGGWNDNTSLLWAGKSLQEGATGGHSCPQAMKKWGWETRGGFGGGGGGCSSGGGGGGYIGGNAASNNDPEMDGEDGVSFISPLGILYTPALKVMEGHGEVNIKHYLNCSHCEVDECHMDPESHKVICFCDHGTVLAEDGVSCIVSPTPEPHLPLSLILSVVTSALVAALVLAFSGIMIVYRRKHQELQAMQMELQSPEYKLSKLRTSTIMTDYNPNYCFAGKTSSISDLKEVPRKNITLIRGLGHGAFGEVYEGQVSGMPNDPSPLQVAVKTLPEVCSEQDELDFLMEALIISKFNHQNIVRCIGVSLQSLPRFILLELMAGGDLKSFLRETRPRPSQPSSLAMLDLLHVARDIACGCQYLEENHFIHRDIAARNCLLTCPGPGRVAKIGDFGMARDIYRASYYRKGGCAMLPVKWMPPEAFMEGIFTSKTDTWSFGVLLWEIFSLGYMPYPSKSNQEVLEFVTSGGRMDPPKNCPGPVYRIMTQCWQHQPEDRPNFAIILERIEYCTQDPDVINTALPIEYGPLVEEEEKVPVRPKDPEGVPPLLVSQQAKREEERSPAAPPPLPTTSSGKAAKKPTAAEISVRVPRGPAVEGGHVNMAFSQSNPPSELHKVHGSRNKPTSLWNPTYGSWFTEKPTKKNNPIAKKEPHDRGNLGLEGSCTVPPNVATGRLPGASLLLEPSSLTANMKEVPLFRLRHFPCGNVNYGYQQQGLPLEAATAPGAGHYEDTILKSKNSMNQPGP
Sequence of TrkA (P04629 33-796): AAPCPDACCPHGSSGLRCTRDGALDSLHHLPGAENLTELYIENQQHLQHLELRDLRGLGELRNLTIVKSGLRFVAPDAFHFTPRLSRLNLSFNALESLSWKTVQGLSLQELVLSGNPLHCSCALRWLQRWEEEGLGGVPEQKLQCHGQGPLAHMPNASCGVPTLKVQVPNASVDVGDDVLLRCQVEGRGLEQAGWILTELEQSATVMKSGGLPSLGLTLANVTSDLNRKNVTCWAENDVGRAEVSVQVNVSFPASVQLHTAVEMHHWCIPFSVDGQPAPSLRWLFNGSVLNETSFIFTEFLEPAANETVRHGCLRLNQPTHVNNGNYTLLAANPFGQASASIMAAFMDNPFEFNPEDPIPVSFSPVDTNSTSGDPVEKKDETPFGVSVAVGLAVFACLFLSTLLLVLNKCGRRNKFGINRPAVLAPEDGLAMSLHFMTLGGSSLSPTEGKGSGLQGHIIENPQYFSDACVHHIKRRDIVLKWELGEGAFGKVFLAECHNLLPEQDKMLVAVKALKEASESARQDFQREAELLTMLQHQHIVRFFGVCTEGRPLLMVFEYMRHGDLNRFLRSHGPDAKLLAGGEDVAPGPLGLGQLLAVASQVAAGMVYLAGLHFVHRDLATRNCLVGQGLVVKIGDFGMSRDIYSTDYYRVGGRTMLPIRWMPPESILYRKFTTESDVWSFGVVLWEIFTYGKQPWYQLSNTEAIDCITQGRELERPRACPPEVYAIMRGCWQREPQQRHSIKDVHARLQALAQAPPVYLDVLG

SMILES	IC50 (SUDHL-1 lymphoma cells) [nM]	IC50 (ALK; read-out: ALK (nM) IC50)	IC50 (TrkA; read-out: TrkA (nM) IC50)	IC50 (U937 lymphoma cells) [nM]	IC50 (K299 lymphoma cells) [nM]	also measured
CC(Cc1cc(F)ccc1F)Nc1cc[nH]c(=O)c1-c1nc2cc3c(cc2[nH]1)C(=O)N(CCN(C)C)C3=O (centres unmarked) [Compound 17, 2-(4-(1-(2,5-Difluorophenyl)propan-2-ylamino)-2-oxo-1,2-dihydropyridin-3-yl)-6-(2-(dimethylamino)ethyl)imidazo[4,5-f]isoindole-5,7(1H,6H)-dione]	–	38.9 nM	17.5 nM	–	–	half-life at 0.5 μM (in vitro [1]): 25.6 min; microsomal CLint at 0.5 μM (in vitro [1]): 27.1 µL/min/mg; microsomal CLint at 0.5 μM (in vitro [2]): 8.77 µL/min/mg; half-life at 0.5 μM (in vitro [2]): 79.1 min
Cc1c2c(cc3[nH]c(-c4c(NC(C)Cc5c(F)c(F)cc(F)c5F)cc[nH]c4=O)nc13)CN(C1CCN(C)CC1)C2=O (centres unmarked) [Compound 24, 4-Methyl-6-(1-methylpiperidin-4-yl)-2-(2-oxo-4-(1-(2,3,5,6-tetrafluorophenyl)propan-2-ylamino)-1,2-dihydropyridin-3-yl)-6,7-dihydroimidazo[4,5-f]isoindol-5(1H)-one]	–	23.7 nM	10.4 nM	–	–	–
Cc1c2c(cc3[nH]c(-c4c(NC(C)Cc5c(F)c(F)cc(F)c5F)cc[nH]c4=O)nc13)C(=O)N(C1CCN(C)CC1)C2=O (centres unmarked) [Compound 29, 4-Methyl-6-(1-methylpiperidin-4-yl)-2-(2-oxo-4-(1-(2,3,5,6-tetrafluorophenyl)propan-2-ylamino)-1,2-dihydropyridin-3-yl)imidazo[4,5-f]isoindole-5,7(1H,6H)-dione]	–	231 nM	165 nM	–	–	–
C[C@@H](Cc1cc(F)ccc1F)Nc1cc[nH]c(=O)c1-c1nc2cc3c(cc2[nH]1)C(=O)N(C)C3=O [Compound 32, 2-(4-(1-(2,5-Difluorophenyl)propan-2-ylamino)-2-oxo-1,2-dihydropyridin-3-yl)-6-methylimidazo[4,5-f]isoindole-5,7(1H,6H)-dione]	957	> 300 nM	30 to 100 nM	> 3000	784	half-life at 0.5 μM (in vitro [1]): > 120 min; microsomal CLint at 0.5 μM (in vitro [1]): < 5.8 µL/min/mg; microsomal CLint at 0.5 μM (in vitro [2]): 7.81 µL/min/mg; half-life at 0.5 μM (in vitro [2]): 88.7 min; IC50 (ALK; read-out: GTx-ALK IC50): > 300 nM; IC50 (TrkA; read-out: GTx-TrKA IC50): > 30 nM; microsomal CLint at 0.5 μM ([3]; read-out: Mouse LM-P1 CL): < 5.8 µL/min/mg; half-life at 0.5 μM ([3]; read-out: Mouse LM-P1 Half-life): > 120 min; Papp (10−6 cm/sec) A to B (Caco-2 cells): >0.2 10−6 cm/sec; Papp (10−6 cm/sec) B to A (Caco-2 cells): 0.1 10−6 cm/sec; Papp A→B at 2 h, 10 μM [4]: < 0.2 ×10⁻⁶ cm/s
CC(Cc1cc(F)ccc1F)Nc1cc[nH]c(=O)c1-c1nc2cc3c(cc2[nH]1)C(=O)N(CC(O)CO)C3=O [Compound 34, 2-(4-(1-(2,5-Difluorophenyl)propan-2-ylamino)-2-oxo-1,2-dihydropyridin-3-yl)-6-(R)-2,3-dihydroxypropyl)imidazo[4,5-f]isoindole-5,7(1H,6H)-dione]	> 10000	13.8 nM and 4.71 nM	6.97 nM and 3.7 nM	> 10000	> 10000	half-life at 0.5 μM (in vitro [1]): 33.6 min; microsomal CLint at 0.5 μM (in vitro [1]): 20.6 µL/min/mg; microsomal CLint at 0.5 μM (in vitro [2]): 9.16 µL/min/mg; half-life at 0.5 μM (in vitro [2]): 75.7 min; IC50 (ALK; read-out: GTx-ALK IC50): 14 nM; IC50 (TrkA; read-out: GTx-TrKA IC50): 7 nM; Papp (10−6 cm/sec) B to A (Caco-2 cells): 1.17 10−6 cm/sec; efflux ratio at 2 h, 10 μM [4]: > 5.9; Papp B→A at 2 h, 10 μM [4]: 1.17 ×10⁻⁶ cm/s
CC(Cc1cc(F)ccc1F)Nc1cc[nH]c(=O)c1-c1nc2cc3c(cc2[nH]1)C(=O)N(C(C)C)C3=O (centres unmarked) [Compound 36, 2-(4-((1-(2,5-Difluorophenyl)propan-2-yl)amino)-2-oxo-1,2-dihydropyridin-3-yl)-6-isopropylimidazo[4,5-f]isoindole-5,7(1H,6H)-dione]	2770	–	–	> 3000	1830	–
CC(Cc1cc(F)ccc1F)Nc1cc[nH]c(=O)c1-c1nc2cc3c(cc2[nH]1)CN(C(C)C)C3=O (centres unmarked) [Compound 37, 2-(4-((1-(2,5-Difluorophenyl)propan-2-yl)amino)-2-oxo-1,2-dihydropyridin-3-yl)-6-isopropyl-6,7-dihydroimidazo[4,5-f]isoindol-5(1H)-one]	2770	–	–	> 3000	1830	–
Cc1ccc(F)cc1CC(C)Nc1cc[nH]c(=O)c1-c1nc2cc3c(cc2[nH]1)C(=O)N(C(C)C)C3=O (centres unmarked) [Compound 38, 2-(4-((1-(5-Fluoro-2-methylphenyl)propan-2-yl)amino)-2-oxo-1,2-dihydropyridin-3-yl)-6-isopropylimidazo[4,5-f]isoindole-5,7(1H,6H)-dione]	2800	–	–	> 3000	> 3000	–
Cc1ccc(F)cc1CC(C)Nc1cc[nH]c(=O)c1-c1nc2cc3c(cc2[nH]1)CNC3=O (centres unmarked) [Compound 52]	–	–	–	–	–	half-life at 0.5 μM (in vitro [1]): 2.51 min; microsomal CLint at 0.5 μM (in vitro [1]): 276 µL/min/mg; microsomal CLint at 0.5 μM (in vitro [2]): 134 µL/min/mg; half-life at 0.5 μM (in vitro [2]): 5.17 min; Papp (10−6 cm/sec) A to B (Caco-2 cells): 5.0 10−6 cm/sec and 8.9 10−6 cm/sec; Papp (10−6 cm/sec) B to A (Caco-2 cells): 10.2 10−6 cm/sec and 5.2 10−6 cm/sec; Papp A→B at 2 h, 10 μM [4]: 9.3 ×10⁻⁶ cm/s; Papp B→A at 2 h, 10 μM [4]: 7.4 ×10⁻⁶ cm/s
CC(C)NCC(O)COc1cccc2ccccc12 (centres unmarked) [Propranolol, reference compound]	–	–	–	–	–	Pos Ctrl Recovery (Caco-2 cells; positive control): 63% and 58% and 26%

More lines, main results first:

IC50 (SUDHL-1 lymphoma cells) [nM]	IC50 (ALK; read-out: ALK (nM) IC50)	IC50 (TrkA; read-out: TrkA (nM) IC50)	IC50 (U937 lymphoma cells) [nM]	IC50 (K299 lymphoma cells) [nM]	SMILES	also measured
> 10000	> 10000 nM	> 10000 nM	> 10000	> 10000	C[C@@H](Cc1cc(F)cc(F)c1F)Nc1cc[nH]c(=O)c1-c1nc2cc3c(cc2[nH]1)C(=O)N([C@@H](C)Cc1cc(F)cc(F)c1F)C3=O (stereo in doubt) [Compound 40, 2-(2-oxo-4-(1-(2,3,5-trifluorophenyl)propan-2-ylamino)-1,2-dihydropyridin-3-yl)-6-(1-(2,3,5-trifluorophenyl)propan-2-yl)imidazo[4,5-f]isoindole-5,7(1H,6H)-dione]	–
2800	–	–	> 3000	> 3000	Cc1ccc(F)cc1CC(C)Nc1cc[nH]c(=O)c1-c1nc2cc3c(cc2[nH]1)CN(C(C)C)C3=O (centres unmarked) [Compound 39, 2-(4-((1-(5-Fluoro-2-methylphenyl)propan-2-yl)amino)-2-oxo-1,2-dihydropyridin-3-yl)-6-isopropyl-6,7-dihydroimidazo[4,5-f]isoindol-5(1H)-one]	–
> 10000	17.5 nM	7.27 nM	> 10000	> 10000	CC(Cc1c(F)c(F)cc(F)c1F)Nc1cc[nH]c(=O)c1-c1nc2cc3c(cc2[nH]1)C(=O)N(C)C3 (centres unmarked) [Compound 42, 6-Methyl-2-(2-oxo-4-(1-(2,3,5,6-tetrafluorophenyl)propan-2-ylamino)-1,2-dihydropyridin-3-yl)-6,7-dihydroimidazo[4,5-f]isoindole-5(1H)-one]	IC50 (ALK; read-out: GTx-ALK IC50): 18 nM; IC50 (TrkA; read-out: GTx-TrKA IC50): 7 nM; IV_AUC0-1440 Rat 10 mpk ([5]; 10 mg/kg I.V.): 232 µg·min/mL; PO_AUC0-1440 Rat 10 mpk ([5]; 10 mg/kg P.O.): 5.48 µg·min/mL; bioavailability ([5]; male, Sprague-Dawley, plasma, po, 10 mg/kg P.O., read-out: Rat F %): 2.36%; efflux ratio at 2 h, 10 μM [4]: 1; Papp A→B at 2 h, 10 μM [4]: 0.24 ×10⁻⁶ cm/s; Papp B→A at 2 h, 10 μM [4]: 0.24 ×10⁻⁶ cm/s
> 10000	> 10000 nM	9490 nM	> 10000	> 10000	CC(Cc1c(F)c(F)cc(F)c1F)Nc1cc[nH]c(=O)c1-c1nc2cc3c(cc2n1C)CN(C)C3=O (stereo not drawn) [Compound 43, Trans-1,6-Dimethyl-2(2-oxo-4-(1-(2,3,5,6-tetrafluorophenyl)propan-2-ylamino)-1,2-dihydropyridin-3-yl)-6,7-dihydroimidazo[4,5-f]isoindol-5(1H)-one]	IC50 (ALK; read-out: GTx-ALK IC50): > 10000 nM; IC50 (TrkA; read-out: GTx-TrKA IC50): 9500 nM
